Entries after “also recorded” stand apart in the source; their conditions may differ.
Assays:
[1] = test system: limbal stem cells (LSCs); test: Differentiation of expanded LSCs into corneal epithelium cells (p63alpha / keratin 12); assay type: cell-based, human; settings: transferred to conditions that enable differentiation
From the text: Shown are views where the transition from the p63alpha-positive cell identity to the keratin-12 identity are occurring.
These characteristics can be observed by immunohistochemistry or FACS.

[2] = test system: YAP in human CECs; test: Intracellular YAP distribution in corneal endothelial cells (CECs); assay type: cell-based; settings: 10 micromolar, 24 hours
Method: Cells obtained as described in Example C1 were plated in glass-bottom black wall 24-well dishes in corneal endothelial cell culture medium (human endothelial SF (serum free) medium (Invitrogen) with human serum) supplemented with LATS inhibitor compound example no. 133 or compound example no. […] Cells were cultured under these conditions for 24 hours at 37° C. in 5% CO2.
(§1) To measure the effect of the LATS inhibitors on the downstream target YAP, intracellular YAP distribution was analyzed by immunohistochemistry. Cell cultures were fixed with 4% PFA for 20 minutes, permeabilized and blocked in a blocking solution of 0.3% Triton X-100 (Sigma-Aldrich) and 3% donkey serum in PBS for 30 minutes. Cells were then labeled with primary antibody in the blocking solution for 12 hours at 4° C. Primary antibody used was anti-YAP from Santa Cruz Biotechnology. Samples were washed in PBS three times and donkey-raised secondary antibody Alexa Fluor 488 (Molecular Probes) at 1:500 dilution were applied for 30 minutes at room temperature. […] Fluorescence was observed using a Zeiss LSM 880 confocal microscope.

[3] = test system: phospho-YAP (ser127) in human CECs; test: YAP phosphorylation by western blot in CECs; assay type: cell-based; settings: 10 micromolar, 1 hour
Method: Cells obtained as described in Example C1 were detached from the culture dish with 1 mg/ml collagenase for 15 minutes at 37° C., cell suspensions were rinsed by centrifugation and plated in corneal endothelial cell culture medium (human endothelial SF medium (Invitrogen) with human serum) in 6-well plates (Corning) and cultured for 2 to 4 days. The medium was then replaced by fresh corneal endothelial cell culture medium (human endothelial SF medium (Invitrogen) with human serum) supplemented with LATS inhibitor, compound example no. […] Cells were cultured under these conditions for 1 hour at 37° C. in 5% CO2.
Cell pellets were obtained by trypsin dissociation and centrifugation and washed with PBS. The pellets were lysed with […] of RIPA lysis buffer containing protease inhibitor cocktail (Life Technologies) for 30 minutes, with vortexing every 10 minutes. The cell debris were then pelleted at 4° C. for 15 minutes at 14k rpm and the protein lysate was collected. Protein concentration was quantified using a micro BCA kit (Pierce). Fifteen (15) micrograms of total protein was loaded in each well of 4-20% TGX gels (BioRad) and Western blotting was performed according to the manufacturer's instructions. […] Membranes were stained with HRP-conjugated secondary antibodies, rinsed and imaged using a ChemiDoc system (Biorad) according to the manufacturer's instructions.

[4] = test system: YAP phosphorylation in CECs; test: YAP dephosphorylation in CECs by Western blot; assay type: cell-based, human; settings: within one hour of treatment, normalized to beta-actin and total YAP
From the text: As shown in FIG. 15a by Western blot; FIG. 15b: graph showing phosphorylated YAP levels normalized to beta-actin; and FIG. 15c: graph showing phosphorylated YAP levels normalized to total YAP.

[5] = test system: YAP in human LSCs; test: Intracellular YAP distribution in limbal epithelial cells (LSCs); assay type: cell-based; settings: 10 micromolar, 24 hours, vs DMSO
Method: Cells obtained as described in Example B1 were plated in glass-bottom black wall 24-well dishes in limbal epithelium cell culture medium (DMEM F12 supplemented with 10% human serum and 1.3 mM calcium chloride) supplemented with LATS inhibitor compound example no. […] Cells were cultured under these conditions for 24 hours at 37° C. in 5% CO2.
as §1

[6] = test system: Corneal Endothelial Cells (CECs); test: CEC proliferation, Incucyte confluence by real-time live-cell analysis; assay type: cell-based, human; settings: vs vehicle DMSO
From the text: FIG. 16: CECs grown in presence or absence of LATS inhibitors. An Incucyte system (Essen Biosciences) was used to measure CEC confluence by real-time quantitative live-cell analysis over a time course. Compound ex. 49 (black squares) and ex.
(§2) If it is desired to measure the cell number or expansion of the cell population, this may be done for example by taking an aliquot and performing immunocytochemistry (e.g. to count nuclei stained with Sytox Orange) or by live cell imaging under brightfield microscope to count the number of cells or by performing real-time quantitative live-cell analysis of cell confluence at various time points during the cell population expansion phase of the method according to the invention.

[7] = test system: YAP translocation in Corneal Endothelial Cells (CECs); test: YAP nuclear translocation in Corneal Endothelial Cells (CECs); assay type: cell-based, human
[8] = test system: mouse dorsal skin; test: In Vivo Histology and Ki67 Staining Assay (skin cell proliferation); settings: intact mouse dorsal skin, topical, three days of twice-a-day dosing, vs vehicle
Method: Further, the compounds of the invention increase skin cell proliferation in vivo when applied topically. The study was conducted as described the “In Vivo Histology and Ki67 Staining Assay” in the Examples Section A. Example 133 or vehicle were applied to intact mouse dorsal skin. After three days of twice-a-day dosing, the skin samples were collected and subjected to immunohistology staining for Ki67. The sections were evaluated visually for cell proliferation and for the abundance of Ki67 positive cells. The study results are documented in FIGS. 35A and 35B.
FIG. 35B compares the abundance of Ki67 positive cell in untreated and treated mouse skin. […] Also, by using siRNA to knockdown both LATS1 and LATS2, LATS as a negative regulator of the YAP pathway has also been validated.

[9] = test system: limbal stem cells (LSCs); test: LSC population expansion, p63-alpha immunolabelling and cell count; assay type: cell-based, human; settings: for LSC colony formation and p63alpha expression: up to 6 days in culture, vs growth medium and DMSO
From the text: FIG. 2A: In the presence of growth medium and DMSO, only a few isolated cells attach to the culture dish and survive up to 6 days. Most cells expressed the human nuclear marker, but few expressed p63alpha. FIGS. 2B and 2C: In contrast, in the presence of LATS inhibitors: compound example no. 49 and example no. […] FIG. 2D: Passaging cells and culturing them in the presence of LATS inhibitor compound example no.
as §2
The Sytox Orange assay may be performed according to standard protocols known in the art. In brief, after cells have attached to the cell culture dish (typically 24 h after cell plating), the cells are fixed in paraformaldehyde. The cells are then permeabilized (e.g. using a solution of 0.3% Triton X-100) and they are then labeled in a solution of Sytox Orange (e.g. using 0.5 micromolar of Sytox Orange in PBS). The number of nuclei stained with Sytox Orange per surface area are then counted under a Zeiss epifluorescence microscope.
(2) The cell preparation comprises more than 6% p63alpha positive cells. Preferably the cell preparation comprises more than 10%, 20%, 30%, 40%, 50%, 60%, 70%, 80% or 90% p63alpha positive cells. In a preferred embodiment the cell preparation comprises more than 95% p63alpha positive cells. The percentage of p63alpha cells may be measured by immunohistochemistry or FACS.

[10] = test system: YAP phosphorylation in limbal stem cells (LSCs); test: YAP dephosphorylation in LSCs by Western blot; assay type: cell-based, human; settings: within one hour of treatment

Compound | differentiation of expanded LSCs into corneal epithelium cells (keratin 12) [1] | YAP immunostaining in CECs [2] | YAP phosphorylation levels in human CECs (western blot) [3] | YAP dephosphorylation in CECs [4] | YAP immunostaining in the nucleus of LSCs [5] | CEC proliferation (confluence over time) [6] | translocation of YAP into the nucleus in CECs [7] | abundance of Ki67 positive cells [8] | basal cell proliferation and epidermal thickness [8] | LSC colony formation and p63alpha expression [9] | YAP dephosphorylation in LSCs [10] | LSC population expansion after passaging ([9]; passaged cells cultured for two weeks)
CC(C)(C)Nc1cc(-c2ccncc2)nc2cnccc12 [Example 261, N-(tert-butyl)-2-(pyridin-4-yl)-1,7-naphthyridin-4-amine] | can differentiate into corneal epithelium cells | – | – | – | – | – | – | – | – | – | – | –
Cc1n[nH]cc1-c1nc(NC2(C)CC2)c2ccncc2n1 [Example 133, 2-(3-methyl-1H-pyrazol-4-yl)-N-(1-methylcyclopropyl)pyrido[3,4-d]pyrimidin-4-amine] | – | stronger | reduction in YAP phosphorylation levels in human CECs | induce YAP dephosphorylation | stronger in the nucleus | induced strong CEC proliferation | induce translocation of YAP into the nucleus | 10% | significant increase in basal cell proliferation and epidermal thickness; also recorded: increased basal layer skin cell growth | formed colonies and expressed p63alpha | induce YAP dephosphorylation | –
CC(C)(O)CC(C)(C)Nc1nc(-c2ccncc2)nc2cnccc12 [Example 49, 2,4-dimethyl-4-{[2-(pyridin-4-yl)pyrido[3,4-d]pyrimidin-4-yl]amino}pentan-2-ol] | can differentiate into corneal epithelium cells | stronger | reduction in YAP phosphorylation levels in human CECs | induce YAP dephosphorylation | stronger in the nucleus | induced strong CEC proliferation | induce translocation of YAP into the nucleus | – | – | formed colonies and expressed p63alpha | induce YAP dephosphorylation | enabled cell population expansion and the formation of confluent cultures expressing p63alpha

Source: US11458138B2 (Novartis AG, priority 2017, dated 2022)
